# Experiments:
# [1] = molecular target: T1, mFPR2/ALX (Mus musculus, UniProt O88536); experiment: cAMP assay in CHO-A12 cell line over-expressing mouse mFPR2; type: cell-based; conditions: CHO-A12 cells over-expressing mFPR2; read-out: potency as activator of mFPR2/ALX
# T1 construct: expressed in transfected cells; host or cells: CHO-A12
# T1 sequence (O88536 1-351): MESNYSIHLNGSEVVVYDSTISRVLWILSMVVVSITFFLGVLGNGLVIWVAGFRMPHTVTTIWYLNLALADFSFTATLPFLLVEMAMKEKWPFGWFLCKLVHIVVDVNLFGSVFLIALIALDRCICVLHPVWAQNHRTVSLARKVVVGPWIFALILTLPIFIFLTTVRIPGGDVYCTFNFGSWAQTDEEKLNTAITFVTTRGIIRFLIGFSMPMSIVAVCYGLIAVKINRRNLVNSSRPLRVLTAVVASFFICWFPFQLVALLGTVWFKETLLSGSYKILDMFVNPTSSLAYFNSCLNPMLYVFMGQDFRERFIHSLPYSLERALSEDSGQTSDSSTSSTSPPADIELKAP
# [2] = molecular target: T2, mFPR3 (Mus musculus, UniProt O08790); experiment: cAMP assay in CHO-A12 cell line over-expressing mouse mFPR3; type: cell-based; conditions: CHO-A12 cells over-expressing mFPR3; read-out: activity against mFPR3
# T2 construct: expressed in transfected cells; host or cells: CHO-A12
# T2 sequence (O08790 1-351): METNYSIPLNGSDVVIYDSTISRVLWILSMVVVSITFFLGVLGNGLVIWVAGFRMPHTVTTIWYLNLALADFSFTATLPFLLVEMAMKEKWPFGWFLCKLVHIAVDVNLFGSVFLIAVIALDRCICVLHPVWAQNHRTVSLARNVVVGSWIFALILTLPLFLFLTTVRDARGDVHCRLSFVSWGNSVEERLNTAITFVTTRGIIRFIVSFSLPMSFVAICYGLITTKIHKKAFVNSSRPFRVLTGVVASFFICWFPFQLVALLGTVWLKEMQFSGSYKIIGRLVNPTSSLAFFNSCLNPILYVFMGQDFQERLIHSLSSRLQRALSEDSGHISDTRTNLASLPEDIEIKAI
# [3] = molecular target: T3, mFPR1 receptor (Mus musculus, UniProt P33766); experiment: Functional assay with mFPR1 receptor; type: cell-based; conditions: read-out: function affinity with mFPR1 receptor
# T3 sequence (P33766 1-364): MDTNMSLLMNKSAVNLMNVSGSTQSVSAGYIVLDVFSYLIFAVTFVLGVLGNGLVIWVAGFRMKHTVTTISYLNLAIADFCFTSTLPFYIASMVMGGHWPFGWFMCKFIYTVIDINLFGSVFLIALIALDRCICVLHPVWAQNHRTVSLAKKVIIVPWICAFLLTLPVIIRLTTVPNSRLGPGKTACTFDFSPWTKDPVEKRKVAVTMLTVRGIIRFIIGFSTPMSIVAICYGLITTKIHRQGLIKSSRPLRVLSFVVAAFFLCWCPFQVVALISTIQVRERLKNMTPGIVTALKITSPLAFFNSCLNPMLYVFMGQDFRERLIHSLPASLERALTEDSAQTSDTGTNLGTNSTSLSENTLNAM
# [4] = test system: human HL60 cell line; experiment: Flipr calcium flux assay using dHL60 cell line; type: cell-based; conditions: HL-60; neutrophil like human HL60 cell line; read-out: potency for increase of cytosolic Ca2+ levels
# Description: Flipr assay using dHL60 non-adherent cell line. HL60 cells were diluted to 1.5×10^5 cells/ml and were grown in culture medium containing 1.3% DMSO at 37C for 5 days. On day 6 cells were counted to make sure that cells viability was approx. 95%. The 1.2×10^7 cells were spin down and washed cells once with assay buffer. The supernatant was removed and cells were re-suspended in 12 ml buffer with fluo-4 AM loading dye and label cells at 37C for 30 min. Loading buffer: HBSS (invitrogen, cat 14075), 20 mM HEPES, 0.1% FAF-BSA, 15 ul of 0.025% pluronic F127 (Invitrogen, P3000 MP), 2.5 mM probenecid, 1.9 uM Fluo-4 AM (Invitrogen, F14201). After incubation cells were washed once with reaction buffer to remove the dye and were re-suspended at 1×10^6 cells/ml. Following wash, cells were plated in 100 ul/well in Poly-D-Lysine pre-coated 96 well assay plates. Assay plates were centrifuged at 1000 rpm for 10 min and then placed in the FLIPR to perform calcium flux assay.
# [5] = test system: human HL60 cell line; experiment: HL-60 cell migration assay agonist mode; type: cell-based; conditions: read-out: potency for stimulation of chemotaxis by itself
# Description: (§1) HL-60 cell culture and differentiation. The HL-60 cell line (ATCC, CCL-240, lot 60398411) was maintained in IMDM (Life Tech, cat 12440-053) medium supplemented with 20% fetal bovine serum, 50 U/ml penicillin, and 50 μg/ml streptomycin at 37° with 5% CO2. Cells were differentiated into the granulocyte lineage with DMSO; 2.5×10^5 cells/ml were incubated with 1.25% DMSO for 5 days.
# Neutrophil and HL-60 cell migration assay agonist mode. After 5 day differentiation, cells were resuspended in phenol free RPMI (Invitrogen, cat 11835) with 0.2% fatty acid free BSA at a concentration of 3×10^7 cells/ml. The dHL-60 cells (10^5 in 100 μl) were added to the upper chamber of each HTS transwell-96well plate (Corning#3387). Migration was induced by placing chemoattractant in the bottom chamber and the dHL60 cells in the top chamber of the transwell plate. Cells were allowed to migrate for 120 min across the 5 micron filters at 37° with 5% CO2. Following migration, neutrophils or dHL-60 cells remaining in the transwell lower chamber (migrated fraction) were quantitated using the cell-titer-glo luminescence cell viability assay (Promega, G7571).
# [6] = test system: human HL60 cell line; experiment: HL-60 cell migration assay antagonist mode (SAA-induced chemotaxis); type: cell-based; conditions: read-out: affinity for antagonism of chemotaxis induced by SAA
# Description: as §1
# Neutrophil and HL-60 cell migration assay antagonist mode. After 5 day differentiation, the cells were resuspended in phenol free RPMI (Invitrogen, cat 11835) with 0.2% fatty acid free BSA at a concentration of 3×10^7 cells/ml. The dHL-60 cells (10^5 in 100 μl) were pre-incubated for 15 minutes with varying concentrations of the […] at 37° with 5% CO2. Then 0.8uM of the recombinant serum amyloid A1 peptide (rSAA1, PeproTech, Cat#300-53) was added to the bottom chamber of each HTS transwell-96well plate (Coming#3387). Migration was induced by placing […] and the dHL60 cells mixture in the top chamber of the transwell plate. Cells were allowed to migrate for 120 min across the 5micron filters at 37° with 5% CO2. Following migration, neutrophils or dHL-60 cells remaining in the transwell lower chamber (migrated fraction) were quantitated using the cell-titer-glo luminescence cell viability assay (Promega, G7571).
# [7] = test system: mouse bio-gel elicited peritoneal macrophages; experiment: Enhancement of phagocytosis in bio-gel elicited peritoneal macrophages; type: cell-based
# Description: Enhancement of phagocytosis. Macrophages were elicited to the peritoneum of five C57BL6 mice by peritoneal injection of 1 ml of 1% Biogel in PBS (−/−) 4 days prior to harvest. Peritoneal exudates are harvested, combined and then filtered to remove Biogel beads. First, through a 70 um cell strainer followed by successively filtering through two 40 um cell strainers. The exudate is diluted with 1× PBS (−/−) to 50 ml and centrifuged at 300× g for 10 minutes at 4° C. The cell pellet is gently resuspended in 20-30 ml 1× PBS(+/+) and cells are counted using the Nexelcom Cellometer counter. Cell concentration is adjusted to 1,250,000 cells/ml in 1× PBS (+/+). 100 ul (125 k) cells are placed into each well of a 96-well Costar 3904 plate. The plates are centrifuged at 150× g for 30 seconds to promote adherence. […] Fluorescence signal from non-ingested Zymosan particles is quenched with 150 ul ice-cold 1:15 diluted Trypan Blue solution for 2 minutes and then aspirated to remove. Lastly, the plate is read on a SpectraMAX Gemini EM fluorescence plate reader in 150 ul of 1:50 diluted Trypan Blue. Plate Reader Settings=Bottom Read: Excitation 493 nm: Emission 525 nm: Cutoff 515 nm: Automix Off: Calibrate On: PMT=Auto: Column Priority: Reads/Well=20.
# [8] = test system: mice; experiment: Permanent coronary artery occlusion myocardial infarction model; type: in vivo
# Description: Animal models. Permanent coronary artery occlusion was carried out in mice using a ligature placed around the left anterior descending artery to induce myocardial infarction. […] Mice subjected to thoracotomy but not infarcted were included as surgical “sham” controls. Mice were evaluated 28 days following myocardial infarction to assess structure/function relationships. Hearts were removed from mice to evaluate the passive mechanics of the myocardium. To do this, ex vivo pressure-volume relationships of the left ventricle were measured via inflation and deflation cycles of a balloon placed within the left ventricle of the excised heart. Two-dimensional strains of the myocardial scar were also measured to determine the compliance of infarcted tissue. Hearts were also processed histologically to measure left ventricular dimensions, infarct areas and infarct collagen composition.
# [9] = test system: mice; experiment: Angiotensin II challenge myocardial fibrosis model; type: in vivo, mouse; conditions: for decrease of left ventricular hydroxyproline content vs vehicle: p<0.05
# Description: To assess myocardial fibrosis, mice were challenged with angiotensin II to stimulate cardiac hypertrophy and left ventricular collagen deposition. Mice were administered angiotensin II using subcutaneously implanted osmotic mini-pumps (˜2 mg/kg/day) A separate group of mice were implanted with subcutaneous pumps containing saline (surgical “sham” group); these mice served as control for pump implantation surgery. […] Treatments lasted for 2-3 weeks, depending on the exact study design. At the end of treatment phase, hearts were removed from animals and evaluated for collagen levels/fibrosis using a standard colorimetric assay for myocardial hydroxyproline or by cross-sectional histology of the hearts.
# Myocardial fibrosis was evaluated in the mouse with continuous angiotensin II challenge administered by subcutaneous osmotic mini-pump.
# [10] = mice, oral 1 and 10 mg/kg QD, stated for both models
smiles,measurement,setting,value
"CC(C)c1c(NC(=O)Nc2ccc(Cl)cc2)c(=O)n(-c2ccccc2)n1C [Compound 1, 1-(4-chlorophenyl)-3-(5-isopropyl-1-methyl-3-oxo-2-phenyl-2,3-dihydro-1H-pyrazol-4-yl)urea]",EC50,[1],20 nM
same,EC50,[2],> 10000 nM
same,EC50,[3],~50 nM
same,EC50,[4],50 nM
same,EC50,[5],78 nM
same,IC50,[6],189 nM
same,enhancement of phagocytosis of fluorescently labeled zymosan vs untreated control cells,"[7]; compound in picomolar range, depending on experimental conditions",250 to 60%
same,enhancement of phagocytosis in knockout macrophages,[7]; macrophages from single mFPR2 and mFPR3 or double mFPR2/FPR3 knockout mice,no such enhancement
same,reduction of infarct area (as % of left ventricle area) vs vehicle,"[8]; 1 mg/kg, histology, p<0.05",44%
same,reduction of left ventricular chamber area vs vehicle (histology),"[8]; 1 mg/kg, p<0.05",28%
same,reduction of infarct area (as % of left ventricle area) vs vehicle,"[8]; 10 mg/kg, histology, p<0.05",49%
same,reduction of left ventricular chamber area vs vehicle (histology),"[8]; 10 mg/kg, p<0.05",30%
same,ex vivo left ventricle pressure-volume curves,"[8]; 28 days post MI, 1 and 10 mg/kg QD oral",left shifted in a dose-dependent manner
same,pressure-volume slopes (myocardial stiffness),"[8]; 28 days post MI, ex vivo",greater than vehicle and similar to normal sham control mice
same,two-dimensional scar strains,"[8]; 28 days post MI, ex vivo",reduced circumferential and longitudinal strains relative to vehicle treatment
same,overall mortality,[8]; high dose,decrease in overall mortality
same,increased anterior left ventricular wall thickness at site of infarction vs vehicle,"[8]; histology, p<0.05",45-65%
same,tolerability throughout the in-life phase,[8]; [10],well tolerated
same,untoward effects on the physiology of the mice,[8]; [10],no untoward effects
same,decrease of left ventricular hydroxyproline content vs vehicle,"[9]; 1 mg/kg, pre-treatment 24 h before angiotensin II, 2 weeks",83%
same,decrease of left ventricular hydroxyproline content vs vehicle,"[9]; 10 mg/kg, pre-treatment 24 h before angiotensin II, 2 weeks",75%
same,interstitial collagen by histology of the left ventricle,"[9]; pre-treatment 24 h before angiotensin II, 2 weeks",Comparable reductions
same,hydroxyproline content and interstitial collagen levels by histology,[9]; treatment given at the time of angiotensin II challenge,comparable reductions
same,reduction of interstitial fibrosis in the left ventricle vs vehicle,"[9]; treatment started after 3 days of angiotensin II, 2.5 weeks, histology, p<0.001",~74%

# Source: patent publication US20180325869A1, “TARGETING OF THE FORMYL-PEPTIDE RECEPTOR 2/LIPOXIN A4 RECEPTOR (FPR2/ALX) FOR TREATMENT OF HEART DISEASE” (BRISTOL-MYERS SQUIBB COMPANY, priority 2015, published 2018)
